Experimental data: patent US20110305777A1, “DIMERIC IAP ANTAGONISTS” (Tetralogic Pharmaceuticals Corporation, priority 2006, published 2011)

target: XIAP BIR-3 and cIAP-1 BIR-3 (lower Kd of the two reported); test: Fluorescence polarization binding to IAP-BIR3 (competition with AbuRPF-K(5-Fam)-NH2); settings: Table 1; lower of the Kd for XIAP BIR-3 and cIAP-1 BIR-3
Method: The binding affinities of the compounds listed in Table 1 to an IAP were determined substantially as described by Nikolovska-Coleska, Z. et. al. (Analytical Biochemistry (2004), vol. 332:261-273) using a variety of fluorogenic substrates and is reported as a Kd value. Briefly, various concentrations of IAP antagonists were mixed with 5 nM fluorescently labeled peptide (AbuRPF-K(5-Fam)-NH2) and 40 nM of an IAP-BIR3 for 15 min at RT in […] of 0.1M Potassium Phosphate buffer, pH 7.5 containing […] bovine g-globulin. Following incubation, the polarization values (mP) were measured on a Victor2V using a 485 nm excitation filter and a 520 nm emission filter. IC50 values were determined from the plot using nonlinear least-squares analysis using GraphPad Prism. […] The reported Kd values are the lower of the Kd for XIAP BIR-3 and cIAP-1 BIR-3.
The following compound of the invention was also made and tested. The reported Kd value is the lower of the Kd for XIAP BIR-3 and cIAP-1 BIR-3.

| Kd [nM] | SMILES |
| --- | --- |
| < 100 | CNC(C)C(=O)NC(C(=O)N1CCC(C)C1Cc1c(-c2[nH]c3cc(F)ccc3c2CC2C(C)CCN2C(=O)C(NC(=O)C(C)NC)C(C)OC)[nH]c2cc(F)ccc12)C(C)OC (centres unmarked) [M] |
| < 100 | CCC(NC)C(=O)NC(C(=O)N1CCC(O)C1Cc1c(-c2[nH]c3cc(F)ccc3c2CC2C(O)CCN2C(=O)C(NC(=O)C(CC)NC)C(C)(C)C)[nH]c2cc(F)ccc12)C(C)(C)C (centres unmarked) [D] |
| < 100 | CNC(C)C(=O)NC(C(=O)N1CCC(OC)C1Cc1c(-c2[nH]c3cc(F)ccc3c2CC2C(OC)CCN2C(=O)C(NC(=O)C(C)NC)C(C)OC)[nH]c2cc(F)ccc12)C(C)OC (centres unmarked) [G] |
| < 100 | CCC(NC)C(=O)NC(C(=O)N1CCC(O)C1Cc1c(-c2[nH]c3cc(F)ccc3c2CC2C(O)CCN2C(=O)C(NC(=O)C(CC)NC)C(C)OC)[nH]c2cc(F)ccc12)C(C)OC (centres unmarked) [F] |
| < 100 | CCNC(C)C(=O)NC(C(=O)N1CCC(OC)C1Cc1c(-c2[nH]c3cc(F)ccc3c2CC2C(OC)CCN2C(=O)C(NC(=O)C(C)NCC)C(C)OC)[nH]c2cc(F)ccc12)C(C)OC (centres unmarked) [K] |
| < 100 | CCNC(C)C(=O)NC(C(=O)N1CCC(O)C1Cc1c(-c2[nH]c3cc(F)ccc3c2CC2C(O)CCN2C(=O)C(NC(=O)C(C)NCC)C(C)OC)[nH]c2cc(F)ccc12)C(C)OC (centres unmarked) [E] |
| < 100 | CNC(C)C(=O)NC(C(=O)N1CCC(OC)C1Cc1c(-c2[nH]c3cc(F)ccc3c2CC2C(OC)CCN2C(=O)C(NC(=O)C(C)NC)C(C)(C)C)[nH]c2cc(F)ccc12)C(C)(C)C (centres unmarked) [I] |
| < 100 | CCC(NC)C(=O)NC(C(=O)N1CCC(OC)C1Cc1c(-c2[nH]c3cc(F)ccc3c2CC2C(OC)CCN2C(=O)C(NC(=O)C(CC)NC)C(C)OC)[nH]c2cc(F)ccc12)C(C)OC (centres unmarked) [H] |
| < 100 | CNC(C)C(=O)NC(C(=O)N1CCC(O)C1Cc1c(-c2[nH]c3cc(F)ccc3c2CC2C(O)CCN2C(=O)C(NC(=O)C(C)NC)C(C)(C)C)[nH]c2cc(F)ccc12)C(C)(C)C (centres unmarked) [C] |
| < 100 | CNC(CO)C(=O)NC(C(=O)N1CCC(O)C1Cc1c(-c2[nH]c3cc(F)ccc3c2CC2C(O)CCN2C(=O)C(NC(=O)C(CO)NC)C(C)OC)[nH]c2cc(F)ccc12)C(C)OC (centres unmarked) [B] |
| 100 to 1000 | CCC(NC)C(=O)NC(C(=O)N1CCC(OC)C1Cc1c(-c2[nH]c3cc(F)ccc3c2CC2C(OC)CCN2C(=O)C(NC(=O)C(CC)NC)C(C)(C)C)[nH]c2cc(F)ccc12)C(C)(C)C (centres unmarked) [J] |
| < 100 | CCNC(C)C(=O)NC(C(=O)N1CCC(OC)C1Cc1c(-c2[nH]c3cc(F)ccc3c2CC2C(OC)CCN2C(=O)C(NC(=O)C(C)NCC)C(C)(C)C)[nH]c2cc(F)ccc12)C(C)(C)C (centres unmarked) [L] |
| < 100 | CNC(C)C(=O)NC(C(=O)N1CCC(O)C1Cc1c(-c2[nH]c3cc(F)ccc3c2CC2C(O)CCN2C(=O)C(NC(=O)C(C)NC)C(C)OC)[nH]c2cc(F)ccc12)C(C)OC (centres unmarked) [A] |

same assay, conditions: Table 4; lower of the Kd for XIAP BIR-3 and cIAP-1 BIR-3

| Kd [nM] | SMILES |
| --- | --- |
| 100 to 1000 | CNC(C)(C)C(=O)NC(C(=O)N1CC(O)CC1Cc1c(-c2[nH]c3cc(F)ccc3c2CC2CC(O)CN2C(=O)C(NC(=O)C(C)(C)NC)C(C)OC)[nH]c2cc(F)ccc12)C(C)OC (centres unmarked) [N] |
